How the values were obtained:
human URAT1 = target: T1, human URAT1 (Homo sapiens, UniProt Q96S37); conditions: for Fold more potent than parent lesinurad (URAT1 inhibition): ratio of IC50 vs lesinurad, in vitro URAT1 inhibitory assay
T1 sequence (Q96S37 1-553): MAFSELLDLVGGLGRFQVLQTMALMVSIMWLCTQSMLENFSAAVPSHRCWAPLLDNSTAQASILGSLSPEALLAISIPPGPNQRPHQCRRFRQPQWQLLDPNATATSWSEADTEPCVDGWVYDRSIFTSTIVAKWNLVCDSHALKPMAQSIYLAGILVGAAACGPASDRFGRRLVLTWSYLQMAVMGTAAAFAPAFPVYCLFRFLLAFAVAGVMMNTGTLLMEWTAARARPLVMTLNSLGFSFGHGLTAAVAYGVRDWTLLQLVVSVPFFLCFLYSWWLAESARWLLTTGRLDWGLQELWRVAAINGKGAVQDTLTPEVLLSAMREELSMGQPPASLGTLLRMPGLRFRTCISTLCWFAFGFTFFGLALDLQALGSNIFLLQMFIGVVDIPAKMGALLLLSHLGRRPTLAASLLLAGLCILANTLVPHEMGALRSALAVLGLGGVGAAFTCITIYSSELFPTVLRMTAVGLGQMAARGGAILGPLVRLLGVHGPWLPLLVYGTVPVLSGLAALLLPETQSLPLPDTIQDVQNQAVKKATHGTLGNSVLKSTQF
Procedure: After 48 h, when the HEK293-URAT1 cells were grown to confluence, the cells were treated by 0.25% trypsin for 1–2 min. Thereafter, the digested cells were diluted to a density of 1.5 × 10^5/mL and inoculated into the 24-well cell culture plates for about 48 h. The HEK293-URAT1 cells were pre-incubated for 10 min in HBSS (Cl^− free) and then incubated in the uptake solution (PBS) containing 5 μM [8-^14C]uric acid (2 μCi/mL) with or without the tested compounds (at a series of concentrations). […] After that, 500 μL of cell lysis was transferred to scintillation vials and solubilized with scintillation solution. The radioactivity in the cells was measured by a liquid scintillation counter (PerkinElmer, Waltham, MA, USA).

Row | melting point | IC50 (human URAT1) [µM] | Fold more potent than parent lesinurad (URAT1 inhibition) (human URAT1) | SMILES
1 | 140 °C (dec.) | > 100 |  | O=C([O-])CCc1nncn1-c1ccc(C2CC2)c2ccccc12.[Na+] [Compound 1a, Sodium 3-(4-(4-cyclopropylnaphth-1-yl)-4H-1,2,4-triazol-3-yl)propionate]
2 | 135 °C (dec.) | 6.3 ± 0.74 |  | O=C([O-])CCc1nnc(Cl)n1-c1ccc(C2CC2)c2ccccc12.[Na+] [Compound 1b, Sodium 3-(5-chloro-4-(4-cyclopropylnaphth-1-yl)-4H-1,2,4-triazol-3-yl)propionate]
3 |  | 2.4 ± 0.15 | three | O=C([O-])CCc1nnc(Br)n1-c1ccc(C2CC2)c2ccccc12.[Na+] [Compound 1c, Sodium 3-(5-bromo-4-(4-cyclopropylnaphth-1-yl)-4H-1,2,4-triazol-3-yl)propionate]
4 | 158 °C (dec.) | 8.8 ± 1 |  | O=C([O-])CCc1nnc(I)n1-c1ccc(C2CC2)c2ccccc12.[Na+] [Compound 1d, Sodium 3-(4-(4-cyclopropylnaphth-1-yl)-5-iodo-4H-1,2,4-triazol-3-yl)propionate]
5 | 133 °C (dec.) | > 100 |  | COc1nnc(CCC(=O)[O-])n1-c1ccc(C2CC2)c2ccccc12.[Na+] [Compound 1e, Sodium 3-(4-(4-cyclopropylnaphth-1-yl)-5-methoxy-4H-1,2,4-triazol-3-yl)propionate]
6 | 101.5 °C (dec.) | 9.1 ± 1.2 |  | CCOc1nnc(CCC(=O)[O-])n1-c1ccc(C2CC2)c2ccccc12.[Na+] [Compound 1f, Sodium 3-(4-(4-cyclopropylnaphth-1-yl)-5-ethoxy-4H-1,2,4-triazol-3-yl)propionate]
7 | 182 to 184 °C | 10.5 ± 1.4 |  | O=C([O-])CCc1nnc(Br)n1-c1cccc2ccccc12.[Na+] [Compound 1g, Sodium 3-(5-bromo-4-(naphth-1-yl)-4H-1,2,4-triazol-3-yl)propionate]
8 | 155 °C (dec.) | 12.6 ± 1.6 |  | Cc1ccc(-n2c(Br)nnc2CCC(=O)[O-])c2ccccc12.[Na+] [Compound 1h, Sodium 3-(5-bromo-4-(4-methylnaphth-1-yl)-4H-1,2,4-triazol-3-yl)propionate]
9 | 198 °C (dec.) | 8.4 ± 0.98 |  | CCc1ccc(-n2c(Br)nnc2CCC(=O)[O-])c2ccccc12.[Na+] [Compound 1i, Sodium 3-(5-bromo-4-(4-ethylnaphth-1-yl)-4H-1,2,4-triazol-3-yl)propionate]
10 | 183 °C (dec.) | 8.3 ± 1.1 |  | CCCc1ccc(-n2c(Br)nnc2CCC(=O)[O-])c2ccccc12.[Na+] [Compound 1j, Sodium 3-(5-bromo-4-(4-n-propylnaphth-1-yl)-4H-1,2,4-triazol-3-yl)propionate]
11 | 194 °C (dec.) | 1.1 ± 0.21 |  | CC(C)c1ccc(-n2c(Br)nnc2CCC(=O)[O-])c2ccccc12.[Na+] [Compound 1k, Sodium 3-(5-bromo-4-(4-isopropylnaphth-1-yl)-4H-1,2,4-triazol-3-yl)propionate]
12 | 211 °C (dec.) | 36.6 ± 5.3 |  | COc1ccc(-n2c(Br)nnc2CCC(=O)[O-])c2ccccc12.[Na+] [Compound 1l, Sodium 3-(5-bromo-4-(4-methoxynaphth-1-yl)-4H-1,2,4-triazol-3-yl)propionate]
13 | 194 °C (dec.) | 11.2 ± 1.3 |  | CCOc1ccc(-n2c(Br)nnc2CCC(=O)[O-])c2ccccc12.[Na+] [Compound 1m, Sodium 3-(5-bromo-4-(4-ethoxynaphth-1-yl)-4H-1,2,4-triazol-3-yl)propionate]
14 | 204 °C (dec.) | 0.85 ± 0.12 |  | O=C([O-])CCc1nnc(Br)n1-c1ccc(Br)c2ccccc12.[Na+] [Compound 1n, Sodium 3-(5-bromo-4-(4-bromonaphth-1-yl)-4H-1,2,4-triazol-3-yl)propionate]
15 |  | 0.61 ± 0.07 |  | O=C(O)CCc1nnc(Br)n1Cc1ccc(Br)c2ccccc12 [Compound 1o, Sodium 3-(5-bromo-4-((4-bromonaphth-1-yl)methyl)-4H-1,2,4-triazol-3-yl)propionate]
16 | 167 °C (dec.) | 34.7 ± 4.9 |  | O=C([O-])CCc1nnc(Br)n1CCc1ccc(Br)c2ccccc12.[Na+] [Compound 1p, Sodium 3-(5-bromo-4-(2-(4-bromonaphth-1-yl)ethyl)-4H-1,2,4-triazol-3-yl)propionate]
17 |  | 0.23 ± 0.05 | 31 fold | O=C([O-])CCCc1nnc(Br)n1Cc1ccc(Br)c2ccccc12.[Na+] [Compound 1q, Sodium 4-(5-bromo-4-((4-bromonaphth-1-yl)methyl)-4H-1,2,4-triazol-3-yl)butanoate]
18 | 146 to 149 °C | 1.24 ± 0.17 |  | O=C([O-])CCCCc1nnc(Br)n1Cc1ccc(Br)c2ccccc12.[Na+] [Compound 1r, Sodium 5-(5-bromo-4-((4-bromonaphth-1-yl)methyl)-4H-1,2,4-triazol-3-yl)pentanoate]

Reference: publication PMC6274368 (Molecules, 2016)
